According to patent US9963464B2, “Macrocyclic compounds” (Bayer Pharma Aktiengesellschaft, priority 2014, dated 2018):

Molecular target: T1, human PTEFb (CDK9/Cyclin T1) (Homo sapiens, UniProt P50750)
T1 construct: purchased ProQinase, Freiburg, Germany
Experiment: Surface plasmon resonance PTEFb
Format: binding
Details: SPR; for koff: 25° C., below 5E-5 s^-1 not resolvable, read-out: Dissociation rate constant koff; for Target resident time: 1/koff
Excerpt: 8. Surface Plasmon Resonance PTEFb
The term “surface plasmon resonance”, as used herein, refers to an optical phenomenon that allows for the analysis of the reversible associations of biological molecules in real time within a biosensor matrix, for example using the Biacore® system (GE Healthcare Biosciences, Uppsala, Sweden). Biacore® uses the optical properties of surface plasmon resonance (SPR) to detect alterations in the refractive index of a buffer, which changes as molecules in solution interact with the target immobilized on the surface. In brief, proteins are covalently bound to the dextran matrix at a known concentration and a ligand for the protein is injected through the dextran matrix. Near infrared light, directed onto the opposite side of the sensor chip surface is reflected and also induces an evanescent wave in the gold film, which in turn, causes an intensity dip in the reflected light at a particular angle known as the resonance angle. If the refractive index of the sensor chip surface is altered (e.g. by compound binding to the bound protein) a shift occurs in the resonance angle. This angle shift can be measured.
The term “KD”, as used herein, is intended to refer to the equilibrium dissociation constant of a particular compound/target protein complex.
The term “koff”, as used herein, is intended to refer to the off-rate, i.e. the dissociation rate constant of a particular compound/target protein complex.
The term “target residence time”, as used herein, is intended to refer to the inverse of the rate of dissociation rate constant (1/koff) of a particular compound/target protein complex.
The ability of the compounds according to the invention to bind human PTEFb may be determined using surface plasmon resonance (SPR). KD values and koff values may be measured using a Biacore® T200 instrument (GE Healthcare, Uppsala, Sweden).
For SPR measurements, recombinant human PTEFb (CDK9/Cyclin T1 recombinant human active protein kinase purchased from ProQinase, Freiburg, Germany) is immobilized using standard amine coupling (Johnsson B et al, Anal Biochem. 1991 Nov. 1; 198(2):268-77). Briefly, carboxymethylated dextran biosensor chips (CM7, GE Healthcare) are activated with N-ethyl-N′-(3-dimethylaminopropyl)-carbodiimide hydrochloride (EDC) and N-hydroxysuccinimide (NHS) according to the supplier's instructions. Human PTEFb is diluted in 1×HBS-EP+(GE Healthcare) into 30 μg/ml and injected on the activated chip surface. Subsequently, a 1:1 solution of 1 M ethanolamine-HCl (GE Healthcare) and 1×HBS-EP is injected to block unreacted groups, resulting in approximately 4000 response units (RU) of immobilized protein. A reference surface is generated by treatment with NHS-EDC and ethanolamine-HCl. Compounds are dissolved in 100% dimethylsulfoxide (DMSO, Sigma-Aldrich, Germany) to a concentration of 10 mM and subsequently diluted in running buffer (1×HBS-EP+pH 7.4 [generated from HBS-EP+Buffer 10× (GE Healthcare): 0.1 M HEPES, 1.5 M NaCl, 30 mM EDTA and 0.5% v/v Surfactant P20], 1% v/v DMSO). For kinetic measurements, four-fold serial dilutions of compound (0.39 nM to 100 nM) are injected over immobilized protein. Binding kinetics is measured at 25° C. with a flow rate of 50 μl/min in running buffer. Compound concentrations are injected for 60 s followed by a dissociation time of 1800 s. The resulting sensorgrams are double-referenced against the reference surface as well as against blank injections.
The double-referenced sensorgrams are fit to a simple reversible Langmuir 1:1 reaction mechanism as implemented in the Biacore® T200 evaluation software 2.0 (GE Healthcare). In cases were full compound dissociation has not occurred at the end of the dissociation phase, the Rmax parameter (response at saturation) is fit as local variable. In all other cases, Rmax is fit as global variable.

T1 sequence (P50750 whole entry): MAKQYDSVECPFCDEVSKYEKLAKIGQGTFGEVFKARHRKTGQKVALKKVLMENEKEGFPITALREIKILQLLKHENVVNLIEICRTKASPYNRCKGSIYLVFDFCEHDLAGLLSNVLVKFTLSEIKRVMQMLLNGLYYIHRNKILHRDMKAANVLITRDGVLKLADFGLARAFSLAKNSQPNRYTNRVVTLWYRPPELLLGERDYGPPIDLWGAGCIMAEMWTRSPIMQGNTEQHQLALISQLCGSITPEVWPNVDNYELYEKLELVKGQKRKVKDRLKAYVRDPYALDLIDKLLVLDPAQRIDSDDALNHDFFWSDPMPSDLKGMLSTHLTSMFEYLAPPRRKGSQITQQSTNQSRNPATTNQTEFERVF
T1 sequence (O60563 whole entry partner): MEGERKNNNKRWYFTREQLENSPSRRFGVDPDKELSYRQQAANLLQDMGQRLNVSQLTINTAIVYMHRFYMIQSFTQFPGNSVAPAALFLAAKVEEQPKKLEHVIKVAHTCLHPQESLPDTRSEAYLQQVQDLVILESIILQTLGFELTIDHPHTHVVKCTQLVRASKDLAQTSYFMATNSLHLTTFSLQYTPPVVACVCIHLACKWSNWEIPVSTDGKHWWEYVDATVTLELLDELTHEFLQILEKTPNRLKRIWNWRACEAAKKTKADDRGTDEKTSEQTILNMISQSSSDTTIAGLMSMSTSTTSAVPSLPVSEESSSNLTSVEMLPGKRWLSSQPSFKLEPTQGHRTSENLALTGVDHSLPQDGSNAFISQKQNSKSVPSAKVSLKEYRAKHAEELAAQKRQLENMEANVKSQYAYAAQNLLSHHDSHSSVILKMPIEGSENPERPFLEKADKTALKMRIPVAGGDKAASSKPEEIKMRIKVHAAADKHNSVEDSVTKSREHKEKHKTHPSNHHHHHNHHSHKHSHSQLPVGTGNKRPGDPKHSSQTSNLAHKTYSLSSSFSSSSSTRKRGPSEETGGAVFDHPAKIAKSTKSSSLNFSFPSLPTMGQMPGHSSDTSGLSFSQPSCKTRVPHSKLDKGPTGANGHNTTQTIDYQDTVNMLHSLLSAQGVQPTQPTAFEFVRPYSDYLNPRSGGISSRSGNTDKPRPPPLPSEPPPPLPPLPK

Structure (SMILES)	koff	Target resident time
CSCc1cc2nc(c1)OCCCOc1cc(F)ccc1-c1cc(ncc1F)N2 [Example 3, 15,19-Difluoro-8-[(methylsulfanyl)methyl]-3,4-dihydro-2H,11H-10,6-(azeno)-12,16-(metheno)-1,5,11,13-benzodioxadiazacyclooctadecine]	< 5e-05 s⁻¹	>333 min
CS(=N)(=O)Cc1cc2nc(c1)OCCCOc1cc(F)ccc1-c1cc(ncc1F)N2 (single isomer, unassigned; enantiomer 1) [Example 6, 15,19-Difluoro-8-[(S-methylsulfonimidoyl)methyl]-3,4-dihydro-2H,11H-10,6-(azeno)-12,16-(metheno)-1,5,11,13-benzodioxadiazacyclooctadecine; Enantiomer 1]	< 5e-05 s⁻¹	>333 min
C[S+]([O-])Cc1cc2nc(c1)OCCCOc1cc(F)ccc1-c1cc(ncc1F)N2 (racemic) [Example 4, (rac)-15,19-Difluoro-8-[(methylsulfinyl)methyl]-3,4-dihydro-2H,11H-10,6-(azeno)-12,16-(metheno)-1,5,11,13-benzodioxadiazacyclooctadecine]	< 5e-05 s⁻¹	>333 min
C[S+]([O-])Cc1cc2nc(c1)OCCOc1cc(F)ccc1-c1cc(ncc1F)N2 (racemic) [Example 10, (rac)-14,18-difluoro-7-[(methylsulfinyl)methyl]-2,3-dihydro-10H-9,5-(azeno)-11,15-(metheno)-1,4,10,12-benzodioxadiazacycloheptadecine]	0.00245 s⁻¹	6.8 min
CS(=N)(=O)Cc1cc2nc(c1)OCCOc1cc(F)ccc1-c1cc(ncc1F)N2 (racemic) [Example 11, (rac)-14,18-difluoro-7-[(S-methylsulfonimidoyl)methyl]-2,3-dihydro-10H-9,5-(azeno)-11,15-(metheno)-1,4,10,12-benzodioxadiazacycloheptadecine]	0.0029 s⁻¹	5.7 min
C[S+]([O-])Cc1cc2nc(c1)OCCCCOc1cc(F)ccc1-c1cc(ncc1F)N2 (racemic) [Example 13, (rac)-16,20-difluoro-9-[(methylsulfinyl)methyl]-2,3,4,5-tetrahydro-12H-11,7-(azeno)-13,17-(metheno)-1,6,12,14-benzodioxadiazacyclononadecine]	< 5e-05 s⁻¹	>333 min
CS(=O)(Cc1cc2cc(c1)OCCCOc1cc(F)ccc1-c1nc(ncc1F)N2)=NC(=O)C(F)(F)F (racemic) [Example 16, (rac)-N-[{[15,19-difluoro-3,4-dihydro-2H,11H-12,16-(azeno)-10,6-(metheno)-1,5,11,13-benzodioxadiazacyclooctadecin-8-yl]methyl}(methyl)oxido-λ^6-sulfanylidene]-2,2,2-trifluoroacetamide]	< 5e-05 s⁻¹	>333 min
CSCc1cc2nc(c1)OCCCCOc1cc(F)ccc1-c1cc(ncc1F)N2 [Example 12, 16,20-Difluoro-9-[(methylsulfanyl)methyl]-2,3,4,5-tetrahydro-12H-11,7-(azeno)-13,17-(metheno)-1,6,12,14-benzodioxadiazacyclononadecine]	< 5e-05 s⁻¹	>333 min
CS(=N)(=O)Cc1cc2nc(c1)OCCCCOc1cc(F)ccc1-c1cc(ncc1F)N2 (racemic) [Example 14, (rac)-16,20-difluoro-9-[(S-methylsulfonimidoyl)methyl]-2,3,4,5-tetrahydro-12H-11,7-(azeno)-13,17-(metheno)-1,6,12,14-benzodioxadiazacyclononadecine]	< 5e-05 s⁻¹	>333 min
CSCc1cc2nc(c1)OCCOc1cc(F)ccc1-c1cc(ncc1F)N2 [Example 9, 14,18-Difluoro-7-[(methylsulfanyl)methyl]-2,3-dihydro-10H-9,5-(azeno)-11,15-(metheno)-1,4,10,12-benzodioxadiazacycloheptadecine]	0.00024 s⁻¹	69.4 min
